Measurements reported in paper PMC6886798, “Expression of myeloid Src-family kinases is associated with poor prognosis in AML and influences Flt3-ITD kinase inhibitor acquired resistance” (PLoS ONE, 2019).

Legend:
Assay in all cases: KINOMEscan
Assay type in all cases: binding
Conditions in all cases: 1.0 µM
[1] = biological target: T1, INSRR (Homo sapiens, UniProt P14616)
T1 construct: purchased Eurofins/DiscoverX KINOMEscan scanMAX
Procedure: (§1) Kinase retention to the immobilized ligand is then measured using quantitative real-time PCR for each kinase-specific DNA barcode.

[2] = biological target: T2, ZAK (Homo sapiens, UniProt Q9NYL2)
T2 construct: purchased Eurofins/DiscoverX (KINOMEscan scanMAX service)
Procedure: as §1

[3] = biological target: T3, ACVR2B (Homo sapiens, UniProt Q13705)
T3 construct: purchased Eurofins/DiscoverX KINOMEscan scanMAX
Procedure: as §1

[4] = biological target: T4, ABL1(H396P)-phosphorylated (Homo sapiens, UniProt P00519, H396P)
T4 construct: purchased Eurofins/DiscoverX KINOMEscan scanMAX
Procedure: as §1

[5] = biological target: T5, MLCK (Homo sapiens, UniProt Q32MK0)
T5 construct: purchased Eurofins/DiscoverX KINOMEscan scanMAX
Procedure: as §1

[6] = biological target: T6, CAMKK2 (Homo sapiens, UniProt Q96RR4)
T6 construct: purchased Eurofins/DiscoverX KINOMEscan scanMAX
Procedure: as §1

[7] = biological target: T7, MET(M1250T) (Homo sapiens, UniProt P08581, M1250T)
T7 construct: purchased Eurofins/DiscoverX KINOMEscan scanMAX
Procedure: as §1

[8] = biological target: T8, AURKC (Homo sapiens, UniProt Q9UQB9)
T8 construct: purchased Eurofins/DiscoverX KINOMEscan scanMAX
Procedure: as §1

[9] = biological target: T9, RPS6KA4(Kin.Dom.2-C-terminal) (Homo sapiens, UniProt O75676)
T9 construct: RPS6KA4(Kin.Dom.2-C-terminal); purchased Eurofins/DiscoverX KINOMEscan scanMAX
Procedure: as §1

[10] = biological target: T10, DAPK2 (Homo sapiens, UniProt Q9UIK4)
T10 construct: purchased Eurofins/DiscoverX KINOMEscan scanMAX
Procedure: as §1

[11] = biological target: T11, MAP3K4 (Homo sapiens, UniProt Q9Y6R4)
T11 construct: purchased Eurofins/DiscoverX KINOMEscan scanMAX
Procedure: as §1

[12] = biological target: T12, NEK11 (Homo sapiens, UniProt Q8NG66)
T12 construct: purchased Eurofins/DiscoverX KINOMEscan scanMAX
Procedure: as §1

[13] = biological target: T13, TRKB (Homo sapiens, UniProt Q16620)
T13 construct: purchased Eurofins/DiscoverX KINOMEscan scanMAX
Procedure: as §1

[14] = biological target: T14, WEE2 (Homo sapiens, UniProt P0C1S8)
T14 construct: DNA tag (qPCR barcode); purchased Eurofins/DiscoverX KINOMEscan scanMAX
Procedure: as §1

[15] = biological target: T15, TRKC (Homo sapiens, UniProt Q16288)
T15 construct: DNA tag (qPCR barcode); purchased Eurofins/DiscoverX KINOMEscan scanMAX
Procedure: as §1

[16] = biological target: T16, HIPK3 (Homo sapiens, UniProt Q9H422)
T16 construct: purchased Eurofins/DiscoverX KINOMEscan scanMAX
Procedure: as §1

[17] = biological target: T17, CDK2 (Homo sapiens, UniProt P24941)
T17 construct: purchased Eurofins/DiscoverX KINOMEscan scanMAX
Procedure: as §1

[18] = biological target: T18, ALK (Homo sapiens, UniProt Q9UM73)
T18 construct: purchased Eurofins/DiscoverX KINOMEscan scanMAX
Procedure: as §1

[19] = biological target: T19, ZAP70 (Homo sapiens, UniProt P43403)
T19 construct: purchased Eurofins/DiscoverX (KINOMEscan scanMAX service)
Procedure: as §1

[20] = biological target: T20, PHKG2 (Homo sapiens, UniProt P15735)
T20 construct: purchased Eurofins/DiscoverX KINOMEscan scanMAX
Procedure: as §1

[21] = biological target: T21, PIK3CA(E542K) (Homo sapiens, UniProt P42336, E542K)
T21 construct: purchased Eurofins/DiscoverX KINOMEscan scanMAX
Procedure: as §1

[22] = biological target: T22, LTK (Homo sapiens, UniProt P29376)
T22 construct: purchased Eurofins/DiscoverX KINOMEscan scanMAX
Procedure: as §1

[23] = biological target: T23, SNRK (Homo sapiens, UniProt Q9NRH2)
T23 construct: purchased Eurofins/DiscoverX KINOMEscan scanMAX
Procedure: as §1

[24] = biological target: T24, GSK3B (Homo sapiens, UniProt P49841)
T24 construct: purchased Eurofins/DiscoverX KINOMEscan scanMAX
Procedure: as §1

[25] = biological target: T25, MST4 (Homo sapiens, UniProt Q9P289)
T25 construct: purchased Eurofins/DiscoverX KINOMEscan scanMAX
Procedure: as §1

[26] = biological target: T26, PKMYT1 (Homo sapiens, UniProt Q99640)
T26 construct: purchased Eurofins/DiscoverX KINOMEscan scanMAX
Procedure: as §1

[27] = biological target: T27, PIK4CB (Homo sapiens, UniProt Q9UBF8)
T27 construct: purchased Eurofins/DiscoverX KINOMEscan scanMAX
Procedure: as §1

[28] = biological target: T28, TNNI3K (Homo sapiens, UniProt Q59H18)
T28 construct: purchased Eurofins/DiscoverX KINOMEscan scanMAX
Procedure: as §1

[29] = biological target: T29, GRK3 (Homo sapiens, UniProt P35626)
T29 construct: purchased Eurofins/DiscoverX KINOMEscan scanMAX
Procedure: as §1

[30] = biological target: T30, DYRK1A (Homo sapiens, UniProt Q13627)
T30 construct: purchased Eurofins/DiscoverX KINOMEscan scanMAX
Procedure: as §1

[31] = biological target: T31, ABL1(H396P)-nonphosphorylated (Homo sapiens, UniProt P00519, H396P)
T31 construct: purchased Eurofins/DiscoverX KINOMEscan scanMAX
Procedure: as §1

[32] = biological target: T32, PFTK1 (Homo sapiens, UniProt O94921)
T32 construct: purchased Eurofins/DiscoverX KINOMEscan scanMAX
Procedure: as §1

[33] = biological target: T33, MEK4 (Homo sapiens, UniProt P45985)
T33 construct: purchased Eurofins/DiscoverX KINOMEscan scanMAX
Procedure: as §1

[34] = biological target: T34, TRPM6 (Homo sapiens, UniProt Q9BX84)
T34 construct: DNA tag (qPCR barcode); purchased Eurofins/DiscoverX KINOMEscan scanMAX
Procedure: as §1

[35] = biological target: T35, DRAK1 (Homo sapiens, UniProt Q9UEE5)
T35 construct: purchased Eurofins/DiscoverX KINOMEscan scanMAX
Procedure: as §1

[36] = biological target: T36, MST1R (Homo sapiens, UniProt Q04912)
T36 construct: purchased Eurofins/DiscoverX KINOMEscan scanMAX
Procedure: as §1

[37] = biological target: T37, ADCK4 (Homo sapiens, UniProt Q96D53)
T37 construct: purchased Eurofins/DiscoverX KINOMEscan scanMAX
Procedure: as §1

[38] = biological target: T38, TGFBR1 (Homo sapiens, UniProt P36897)
T38 construct: purchased Eurofins/DiscoverX KINOMEscan scanMAX
Procedure: as §1

[39] = biological target: T39, FLT4 (Homo sapiens, UniProt P35916)
T39 construct: purchased Eurofins/DiscoverX KINOMEscan scanMAX
Procedure: as §1

[40] = biological target: T40, AAK1 (Homo sapiens, UniProt Q2M2I8)
T40 construct: purchased Eurofins/DiscoverX KINOMEscan scanMAX
Procedure: as §1

[41] = biological target: T41, ABL1(Q252H)-nonphosphorylated (Homo sapiens, UniProt P00519, Q252H)
T41 construct: purchased Eurofins/DiscoverX KINOMEscan scanMAX
Procedure: as §1

T19 sequence (P43403 whole entry): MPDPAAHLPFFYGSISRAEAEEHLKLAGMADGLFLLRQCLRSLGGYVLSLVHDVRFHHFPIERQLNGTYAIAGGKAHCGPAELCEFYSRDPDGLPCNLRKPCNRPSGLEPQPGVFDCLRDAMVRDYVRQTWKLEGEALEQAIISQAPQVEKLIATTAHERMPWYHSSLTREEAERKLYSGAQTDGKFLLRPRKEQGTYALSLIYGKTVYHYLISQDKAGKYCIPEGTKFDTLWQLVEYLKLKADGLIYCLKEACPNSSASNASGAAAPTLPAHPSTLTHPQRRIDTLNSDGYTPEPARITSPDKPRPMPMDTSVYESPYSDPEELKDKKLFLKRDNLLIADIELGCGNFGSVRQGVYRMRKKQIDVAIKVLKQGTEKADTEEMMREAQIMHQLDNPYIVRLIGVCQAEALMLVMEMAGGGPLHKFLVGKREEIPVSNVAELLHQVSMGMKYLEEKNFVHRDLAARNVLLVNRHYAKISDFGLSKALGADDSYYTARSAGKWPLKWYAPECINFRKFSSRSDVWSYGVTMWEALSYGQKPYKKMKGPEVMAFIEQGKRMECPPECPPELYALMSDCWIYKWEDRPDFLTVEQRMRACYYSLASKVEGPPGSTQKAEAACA
T28 sequence (Q59H18 whole entry): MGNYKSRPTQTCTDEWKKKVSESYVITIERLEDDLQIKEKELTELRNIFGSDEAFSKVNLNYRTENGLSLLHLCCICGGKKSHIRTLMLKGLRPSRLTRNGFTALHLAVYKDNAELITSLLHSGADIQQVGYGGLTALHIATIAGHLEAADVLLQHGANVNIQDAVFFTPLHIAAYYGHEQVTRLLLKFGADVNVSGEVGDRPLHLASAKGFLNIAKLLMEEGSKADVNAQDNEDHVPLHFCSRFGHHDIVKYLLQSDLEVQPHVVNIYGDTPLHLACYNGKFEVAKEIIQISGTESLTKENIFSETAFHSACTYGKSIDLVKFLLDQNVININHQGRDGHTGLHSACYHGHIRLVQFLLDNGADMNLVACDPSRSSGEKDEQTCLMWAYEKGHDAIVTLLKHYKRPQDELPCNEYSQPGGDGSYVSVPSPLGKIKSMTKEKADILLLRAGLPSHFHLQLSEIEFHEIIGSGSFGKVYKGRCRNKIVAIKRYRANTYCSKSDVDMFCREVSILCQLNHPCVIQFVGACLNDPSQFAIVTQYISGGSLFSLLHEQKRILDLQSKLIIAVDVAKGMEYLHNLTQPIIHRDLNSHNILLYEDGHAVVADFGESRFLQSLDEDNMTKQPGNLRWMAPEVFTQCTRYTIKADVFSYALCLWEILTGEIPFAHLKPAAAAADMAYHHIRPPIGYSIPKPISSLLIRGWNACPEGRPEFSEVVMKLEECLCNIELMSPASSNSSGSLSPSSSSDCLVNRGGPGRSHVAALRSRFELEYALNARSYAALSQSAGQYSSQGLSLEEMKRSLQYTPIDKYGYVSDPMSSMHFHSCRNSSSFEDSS
T15 sequence (Q16288 32-839): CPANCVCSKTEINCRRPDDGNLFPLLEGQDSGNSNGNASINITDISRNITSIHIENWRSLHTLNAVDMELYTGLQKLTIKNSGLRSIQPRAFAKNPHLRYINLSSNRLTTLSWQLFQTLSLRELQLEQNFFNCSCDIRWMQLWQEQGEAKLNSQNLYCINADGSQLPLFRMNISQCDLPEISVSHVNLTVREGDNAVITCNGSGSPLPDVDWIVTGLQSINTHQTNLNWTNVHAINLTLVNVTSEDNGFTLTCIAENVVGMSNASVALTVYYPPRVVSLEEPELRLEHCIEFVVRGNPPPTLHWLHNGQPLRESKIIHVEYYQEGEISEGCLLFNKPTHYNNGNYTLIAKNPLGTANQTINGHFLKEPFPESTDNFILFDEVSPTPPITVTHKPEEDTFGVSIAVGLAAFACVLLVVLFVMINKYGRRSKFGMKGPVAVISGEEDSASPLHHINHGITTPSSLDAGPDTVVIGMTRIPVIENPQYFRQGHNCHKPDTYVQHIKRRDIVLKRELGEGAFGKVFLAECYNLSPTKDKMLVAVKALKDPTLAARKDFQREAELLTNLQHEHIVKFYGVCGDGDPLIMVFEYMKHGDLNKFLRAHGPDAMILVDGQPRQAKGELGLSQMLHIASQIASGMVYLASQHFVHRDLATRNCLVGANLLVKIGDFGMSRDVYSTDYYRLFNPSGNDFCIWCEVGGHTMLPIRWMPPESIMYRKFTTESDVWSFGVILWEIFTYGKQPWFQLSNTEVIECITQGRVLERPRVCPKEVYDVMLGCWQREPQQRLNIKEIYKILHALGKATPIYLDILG
T20 sequence (P15735 whole entry): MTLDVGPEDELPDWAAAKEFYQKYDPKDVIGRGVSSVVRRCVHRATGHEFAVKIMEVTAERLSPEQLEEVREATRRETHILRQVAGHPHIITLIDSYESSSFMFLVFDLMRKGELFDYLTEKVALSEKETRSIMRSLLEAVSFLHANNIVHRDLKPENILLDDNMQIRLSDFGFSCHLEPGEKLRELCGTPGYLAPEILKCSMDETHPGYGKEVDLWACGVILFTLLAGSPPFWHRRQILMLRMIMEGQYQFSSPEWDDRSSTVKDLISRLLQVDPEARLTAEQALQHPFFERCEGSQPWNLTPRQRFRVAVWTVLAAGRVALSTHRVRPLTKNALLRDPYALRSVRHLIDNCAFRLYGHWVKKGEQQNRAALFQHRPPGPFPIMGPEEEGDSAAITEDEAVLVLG
T8 sequence (Q9UQB9 whole entry): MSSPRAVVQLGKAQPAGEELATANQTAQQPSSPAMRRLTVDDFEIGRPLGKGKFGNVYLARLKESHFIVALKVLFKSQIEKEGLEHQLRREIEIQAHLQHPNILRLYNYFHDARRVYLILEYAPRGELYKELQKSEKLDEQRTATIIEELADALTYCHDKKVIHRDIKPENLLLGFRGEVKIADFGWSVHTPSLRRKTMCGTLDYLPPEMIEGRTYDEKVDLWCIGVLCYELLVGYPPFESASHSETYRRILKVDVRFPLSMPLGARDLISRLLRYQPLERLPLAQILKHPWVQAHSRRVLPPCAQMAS
T7 sequence (P08581 25-1390 M1250T): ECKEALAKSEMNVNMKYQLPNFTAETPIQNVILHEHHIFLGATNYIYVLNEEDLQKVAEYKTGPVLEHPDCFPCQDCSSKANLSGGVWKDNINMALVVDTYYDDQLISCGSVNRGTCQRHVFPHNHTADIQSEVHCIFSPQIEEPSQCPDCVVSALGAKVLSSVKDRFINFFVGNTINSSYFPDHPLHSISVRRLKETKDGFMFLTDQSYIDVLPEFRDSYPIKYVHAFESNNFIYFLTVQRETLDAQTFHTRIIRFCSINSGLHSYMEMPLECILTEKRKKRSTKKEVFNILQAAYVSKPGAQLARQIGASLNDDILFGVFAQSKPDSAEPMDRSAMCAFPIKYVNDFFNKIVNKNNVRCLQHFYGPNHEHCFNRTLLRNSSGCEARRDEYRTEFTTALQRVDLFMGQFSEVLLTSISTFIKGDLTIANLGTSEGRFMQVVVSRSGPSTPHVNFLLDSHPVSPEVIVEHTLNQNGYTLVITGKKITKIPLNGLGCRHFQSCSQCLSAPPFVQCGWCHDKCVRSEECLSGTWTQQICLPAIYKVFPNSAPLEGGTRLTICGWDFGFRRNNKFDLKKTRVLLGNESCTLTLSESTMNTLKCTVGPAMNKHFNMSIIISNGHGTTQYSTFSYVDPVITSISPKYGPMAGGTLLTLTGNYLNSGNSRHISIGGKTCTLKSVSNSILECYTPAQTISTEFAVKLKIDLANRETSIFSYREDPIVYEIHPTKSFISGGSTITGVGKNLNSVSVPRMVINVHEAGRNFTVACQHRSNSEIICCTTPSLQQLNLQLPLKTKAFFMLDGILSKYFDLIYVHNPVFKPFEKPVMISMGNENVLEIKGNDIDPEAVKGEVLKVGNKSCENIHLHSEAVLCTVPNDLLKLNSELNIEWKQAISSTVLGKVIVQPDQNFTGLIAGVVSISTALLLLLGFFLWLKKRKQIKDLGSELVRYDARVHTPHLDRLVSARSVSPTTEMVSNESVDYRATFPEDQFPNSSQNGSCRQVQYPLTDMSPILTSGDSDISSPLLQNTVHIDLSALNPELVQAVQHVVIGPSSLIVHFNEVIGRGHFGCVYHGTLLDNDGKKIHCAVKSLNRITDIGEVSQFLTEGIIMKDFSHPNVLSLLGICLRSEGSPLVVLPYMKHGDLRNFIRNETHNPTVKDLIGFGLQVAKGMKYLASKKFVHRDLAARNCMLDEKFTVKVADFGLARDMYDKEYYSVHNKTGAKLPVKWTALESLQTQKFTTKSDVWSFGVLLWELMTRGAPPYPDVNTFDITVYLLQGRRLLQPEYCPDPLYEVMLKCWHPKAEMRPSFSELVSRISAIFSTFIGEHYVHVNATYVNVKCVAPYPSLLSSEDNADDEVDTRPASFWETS
T33 sequence (P45985 whole entry): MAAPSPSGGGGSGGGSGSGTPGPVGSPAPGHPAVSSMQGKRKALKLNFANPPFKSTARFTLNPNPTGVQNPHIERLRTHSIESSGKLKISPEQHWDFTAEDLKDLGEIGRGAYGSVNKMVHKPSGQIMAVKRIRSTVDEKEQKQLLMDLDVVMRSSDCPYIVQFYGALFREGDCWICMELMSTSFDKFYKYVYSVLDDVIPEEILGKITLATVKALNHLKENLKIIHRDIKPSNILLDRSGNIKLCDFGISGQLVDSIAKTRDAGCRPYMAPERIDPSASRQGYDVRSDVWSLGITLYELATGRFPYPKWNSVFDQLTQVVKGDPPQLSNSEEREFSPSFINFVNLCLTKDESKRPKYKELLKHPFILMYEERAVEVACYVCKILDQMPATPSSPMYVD
T9 sequence (O75676 411-674 limits assumed): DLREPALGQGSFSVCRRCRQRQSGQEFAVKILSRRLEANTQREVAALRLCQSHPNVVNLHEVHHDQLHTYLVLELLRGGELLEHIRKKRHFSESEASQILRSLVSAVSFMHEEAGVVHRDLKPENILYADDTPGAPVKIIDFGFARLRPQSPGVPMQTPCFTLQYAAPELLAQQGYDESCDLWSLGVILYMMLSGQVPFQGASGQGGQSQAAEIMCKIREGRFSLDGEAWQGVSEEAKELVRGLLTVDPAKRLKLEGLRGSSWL

CN1CCN(C2CCC(n3cc(-c4ccc(Oc5ccccc5)cc4)c4c(N)ncnc43)CC2)CC1 (centres unmarked) [A-419259]
% Control [1]: 86% | % Control [2]: 13% | % Control [3]: 100% | % Control [4]: 0.65% | % Control [5]: 66% | % Control [6]: 100% | % Control [7]: 59% | % Control [8]: 79% | % Control [9]: 99% | % Control [10]: 98% | % Control [11]: 92% | % Control [12]: 77% | % Control [13]: 29% | % Control [14]: 90% | % Control [15]: 45% | % Control [16]: 91% | % Control [17]: 70% | % Control [18]: 29% | % Control [19]: 100% | % Control [20]: 100% | % Control [21]: 85% | % Control [22]: 36% | % Control [23]: 94% | % Control [24]: 95% | % Control [25]: 4.9% | % Control [26]: 100% | % Control [27]: 83% | % Control [28]: 91% | % Control [29]: 100% | % Control [30]: 99% | % Control [31]: 0.2% | % Control [32]: 63% | % Control [33]: 89% | % Control [34]: 100% | % Control [35]: 65% | % Control [36]: 96% | % Control [37]: 100% | % Control [38]: 60% | % Control [39]: 19% | % Control [40]: 100% | % Control [41]: 0.85%
